Data on 20 molecules can be found in patent publication EP2790511B1 (Merck Sharp & Dohme Corp., priority 2011, dated 2013).

The first test deals with T1, hROMK (hKir1.1) (Homo sapiens, UniProt P48048).
T1 construct: expressed in transfected cells
T1 sequence (P48048 1-391): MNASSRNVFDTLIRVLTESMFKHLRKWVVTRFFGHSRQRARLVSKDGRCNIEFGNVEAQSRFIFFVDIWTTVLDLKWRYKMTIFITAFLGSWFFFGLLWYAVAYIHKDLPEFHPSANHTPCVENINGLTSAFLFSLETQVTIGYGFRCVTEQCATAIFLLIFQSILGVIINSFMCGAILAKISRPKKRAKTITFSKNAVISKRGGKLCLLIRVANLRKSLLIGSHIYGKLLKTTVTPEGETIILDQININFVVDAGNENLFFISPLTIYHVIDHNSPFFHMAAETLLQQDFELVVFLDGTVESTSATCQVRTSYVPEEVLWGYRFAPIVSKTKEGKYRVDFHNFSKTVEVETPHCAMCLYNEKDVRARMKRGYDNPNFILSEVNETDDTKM
The experiment in a line: Thallium Flux Assay. Particulars: HEK293 cells stably expressing hROMK (hKir1.1), FLIPR-Tetra; read-out: Thallium Flux IC50. Format: cell-based. As for the experimental part: Cell Culture Conditions- HEK293 cells stably expressing hROMK (hKir1.1) were grown at 37°C in a 10%CO2 humidified incubator in complete growth media: Dulbecco's Modified Eagle Medium supplemented with non-essential amino acids, Penicillin/Streptomycin/Glutamine, G418 and FBS. At >80% confluency, aspirate the media from the flask and rinse with 10 mL Calcium/Magnesium-free PBS. […] To dislodge the cell, gently bang the side of the flask with your hand. Triturate the cells completely and then transfer the cells to 25 mL complete media. Centrifuge at 1,500 rpm for 6 min followed by resuspension in complete growth media and determine cell concentration. […] Under ideal growth conditions and appropriate tissue culture practices, this cell line is stable for 40-45 passages.
• FluxOR™ Reagent (Component A) • FluxOR™ Assay Buffer (Component B) - 10X Concentrate • PowerLoad™ Concentrate (Component C) - 100X Concentrate • Probenecid (Component D) - Lyophilized sample is kept at -20°C. Water soluble, 100X after solubilization in 1 mL water. […] Store at 4°C. • Thallium sulfate (Tl2SO4) Concentrate (Component G) - 50 mM in water. Store at 4°C • DMSO (dimethyl sulfoxide, Component H) - 1 mL (100%)
• 1000X FluxOR™ Reagent: Reconstitute a vial of component A in 100 µl DMSO; Mix well; Store 10 µl aliquots at -20°C • 1X FluxOR™ Assay Buffer: Dilute Component B 10-fold with water; Adjust pH to 7.4 with Hepes/NaOH; Filter and store at 4°C • Probenecid/Assay Buffer: 100 mL of 1X FluxOR™ Assay Buffer; 1 mL of reconstituted component D; Store at 4°C • Loading Buffer (per microplate): 10 µl 1000X FluxOR™ Reagent; 100 µl component C; 10 mL Probenecid/Assay Buffer • Compound Buffer (per microplate): 20 mL Probenecid/Assay Buffer; 0.3 mM ouabain (10 mM ouabain in water can be stored in amber bottle/aluminum foil at room temperature); Test compound • 1X FluxOR™Chloride-Free Buffer: Prepare 1X working solution in water. Can be stored at room temperature • Stimulant Buffer (prepared at 5X final concentration in 1X FluxOR™Chloride-Free Buffer): 7.5 mM Thallium sulfate and 0.75 mM Potassium sulfate (to give a final assay concentration of 3 mM Thallium/ 0.3 mM Potassium). Store at 4°C when not in use. If kept sterile, this solution is good for months.
Assay protocol- The ROMK channel functional thallium flux assay is performed in 384 wells, using the FLIPR-Tetra instrument. HEK-hKir1.1 cells are seeded in Poly-D-Lysine microplates and kept in a 37°C-10%CO2 incubator overnight. On the day of the experiment, the growth media is replaced with the FluxOR™ reagent loading buffer and incubated, protected from light, at ambient temperature (23-25°C) for 90 min. The loading buffer is replaced with assay buffer ± test compound followed by 30 min incubation at ambient temperature, where the Thallium/Potassium stimulant is added to the microplate.
• 1. Seed HEK-hKir1.1 cells (50 µl at 20,000 cells/well) in 384-well PDL coated Microplates • 2. Allow cells to adhere overnight in humidified 37°C/10%CO2 incubator • 3. Completely remove cell growth media from microplate and replace with 25 µl loading buffer • 4. Incubate Microplate at room temperature, protected form light, for 90 min • 5. Remove loading buffer and replace with 25 µl 1x Assay Buffer ± test compound. • 6. Incubate microplate at room temperature, protected form light, for 30 min • 7. […] Excitation = 400 nm, Emission = 460 & 580 nm. Collect data for ∼ 10 min.
Data Calculation- The fluorescence intensity of wells containing 3 µM of a standard control ROMK inhibitor of the present invention is used to define the ROMK-sensitive component of thallium flux. Fluorescence in the presence of test compounds is normalized to control values to provide % fluorescence change.
The IC50 is the concentration that gives 50% inhibition. For the molecule `O=C(Cc1ccc(-n2cnnn2)nc1)N1CCN2C[C@@H](c3cccc(-n4cnnn4)c3)OC[C@@H]2C1` [Example 103, (3R,9aS)-3-[3-(1H-tetrazol-1-yl)phenyl]-8-{[6-(1H-tetrazol-1-vl)pvridin-3-yl]acetyl}octahydropyrazino[2,1-c][1,4]oxazine], the IC50 came out at 0.34 µM.

Consider `COc1cc(F)c([C@@H]2CN3CCN(C(=O)Cc4cnc(-n5cnnn5)nc4)C[C@H]3CO2)cc1C#N` [Example 168, 4-fluoro-2-methoxy-5-[(3R,9aS)-8-{[2-(1H-tetrazol-1-yl)pyrimidin-5-yl]acetyl}octahydropyrazino[2,1-c][1,4]oxazin-3-yl]benzonitrile], for which the IC50 is 0.35 µM.

For the molecule `Cc1c([C@@H]2CN3CCN(C(=O)Cc4ccc(-n5cnnn5)nc4)C[C@H]3CO2)cccc1-n1cnnn1` [Example 104, (3R,9aS)-3-[2-methyl-3-(1H-tetrazol-1-yl)phenyl]-8-{[6-(1H-tetrazol-1-yl)pyridin-3-yl]acetyl}octahydropyrazino[2,1-c][1,4]oxazine], the half-inhibitory concentration (IC50) stood at 0.48 µM.

Consider `N#Cc1cc([C@@H]2CN3CCN(C(=O)Cc4cnc(-n5cnnn5)nc4)C[C@@H]3CO2)ccc1F` [Example 141, 2-fluoro-5-[(3R,9aR)-8-{[2-(1H-tetrazol-1-yl)pyrimidin-5-yl]acetyl}octahydropyrazino[2,1-c][1,4]oxazin-3-yl]benzonitrile], for which the IC50 is 0.3 µM.

For `Cc1cc2c(cc1[C@H]1CN3CCN(C(=O)Cc4ccc(-n5cnnn5)nc4)C[C@H]3CO1)COC2=O` [Example 73, 6-methyl-5-[(3S,9aS)-8-{[6-(1H-tetrazol-1-yl)pyridin-3-yl]acetyl}octahydropyrazino[2,1-c][1,4]oxazin-3-yl]-2-benzofuran-1(3H)-one], the IC50 is 0.23 µM.

On to `N#Cc1cc([C@@H]2CN3CCN(C(=O)Cc4cnc(-n5cnnn5)nc4)C[C@H]3CN2)ccc1F` [Example 197, 2-fluoro-5-[(3R,9aR)-8-{[2-(1H-tetrazol-1-yl)pyrimidin-5-yl]acetyl}octahydro-2H-pyrazino[1,2-a]pyrazin-3-yl]benzonitrile], for which the IC50 was found to be 0.24 µM.

With `Cc1nc(-n2cnnn2)ccc1CC(=O)N1CCN2C[C@@H](c3ccc4c(c3)CCOC4=O)OC[C@@H]2C1` [Example 30, 6-[(3R,9aS)-8-{[2-methyl-6-(1H-tetrazol-1-yl)pyridin-3-yl]acetyl}octahydropyrazino[2,1-c][1,4]oxazin-3-yl]-3,4-dihydro-1H-isochromen-1-one], the IC50 is 0.16 µM.

`O=C1OCc2cc([C@@H]3CN4CCN(C(=O)Cc5ccc(-n6cnnn6)cn5)C[C@H]4CO3)ccc21` [Example 27, 5-[(3R,9aS)-8-{[5-(1H-tetrazol-1-yl)pyridin-2-yl]acetyl}octahydropyrazino[2,1-c][1,4]oxazin-3-yl]-2-benzofuran-1(3H)-one]: the concentration for half-maximal inhibition (IC50) worked out at 0.1 µM.

For the molecule `Cc1nc(-n2cnnn2)ccc1CC(=O)N1CCN2C[C@@H](c3ccc(F)c(C#N)c3C)OC[C@@H]2C1` [Example 77, 6-fluoro-2-methyl-3-[(3R,9aS)-8-{[2-methyl-6-(1H-tetrazol-1-vl)pvridin-3-yl]acetyl}octahydropyrazino[2,1-c][1,4]oxazin-3-yl]benzonitrile], the IC50 is 0.1 µM.

As for `Cc1c([C@@H]2CN3CCN(C(=O)Cc4ccc(-n5cnnn5)nc4)C[C@H]3CCO2)ccc(F)c1C#N` (single isomer, unassigned) [Example 171], the IC50 is 0.27 µM.

Take `Cc1nc(-n2cnnn2)nc(C)c1CC(=O)N1CCN2C[C@H](c3ccc(F)c(C#N)c3C)OC[C@@H]2C1` [Example 150, 3-[(3S,9aS)-8-{[4,6-dimethyl-2-(1H-tetrazol-1-yl)pyrimidin-5-yl]acetyl}octahydropyrazino[2,1-c][1,4]oxazin-3-yl]-6-fluoro-2-methylbenzonitrile]: the IC50 amounted to 0.29 µM.

For `C[C@@H]1Cc2cc([C@]3(C)CN4CCN(C(=O)Cc5ccc(-n6cnnn6)nc5)C[C@H]4CO3)ccc2C(=O)O1` [Example 105, (3R)-3-methyl-6-[(3R,9a,S)-3-methyl-8-{[6-(1H-tetrazol-1-vl)pvridin-3-yl]acetyl}octahydropyrazino[2,1-c][1,4]oxazin-3-yl]-3,4-dihydro-1H-isochromen-1-one], the IC50 was 0.35 µM.

As to `O=C1OCc2c1ccc([C@H]1CN3CCN(C(=O)Cc4ccc(-n5cnnn5)nc4)C[C@H]3CO1)c2Br` [Example 48, 4-bromo-5-[(3S,9aS)-8-{[6-(1H-tetrazol-1-yl)pyridin-3-yl]acetyl}octahydropyrazino[2,1-c][1,4]oxazin-3-yl]-2-benzofuran-1(3H)-one], the IC50 turned out to be 0.15 µM.

Take `N#Cc1ccc([C@@H]2CN3CCN(C(=O)Cc4ccc(-n5cnnn5)nc4)C[C@H]3CO2)cc1F` [Example 66, 2-fluoro-4-[(3R,9aS)-8-{[6-(1H-tetrazol-1-yl)pyridin-3-yl]acetyl}octahydropyrazino[2,1-c][1,4]oxazin-3-yl]benzonitrile]: the IC50 was 0.37 µM.

Take `Cc1c([C@@H]2CN3CCN(C(=O)Cc4ccnc(-n5cnnn5)c4)C[C@H]3CO2)ccc(F)c1C#N` [Example 99, 6-fluoro-2-methyl-3-[(3R,9aS)-8-{[2-(1H-tetrazol-1-yl)pyridin-4-yl]acetyl}octahydropyrazino[2,1-c][1,4]oxazin-3-yl]benzonitrile]: the IC50 is 0.34 µM.

The test is the same for the next values; noted with them: Thallium Flux IC50.
`Cc1cc(-n2cnnn2)ncc1CC(=O)N1CCN2C[C@H](c3ccc(F)c(C#N)c3C)OC[C@@H]2C1` [Example 43, 6-fluoro-2-methyl-3-[(3S,9aS)-8-{[4-methyl-6-(1H-tetrazol-1-vl)pvridin-3-yl]acetyl}octahydropyrazino[2,1-c][1,4]oxazin-3-yl]benzonitrile]: the IC50 is 0.09 µM.

The molecule `Cc1c(C#N)cccc1[C@@H]1CN2CCN(C(=O)Cc3ccc(-n4cnnn4)nc3)C[C@H]2CO1` [Example 91, 2-methyl-3-[(3R,9aS)-8-{[6-(1H-tetrazol-1-yl)pyridin-3-yl]acetyl}octahydropyrazino[2,1-c][1,4]oxazin-3-yl]benzonitrile] displayed an IC50 of 0.06 µM.

On to `Cc1c([C@@H]2CN3CCN(C(=O)Cc4ccc(-n5cnnn5)cn4)C[C@@H]3CO2)ccc(F)c1C#N` [Example 32, 6-fluoro-2-methyl-3-[(3R,9aR)-8-{[5-(1H-tetrazol-1-yl)pyridin-2-yl]acetyl}octahydropyrazino[2,1-c][1,4]oxazin-3-yl]benzonitrile], for which the IC50 stood at 0.08 µM.

The molecule `O=C(Cc1ccc(-n2cnnn2)nc1)N1CCN2C[C@@H](c3ccc4nonc4c3)OC[C@@H]2C1` [Example 179, (3R,9aS)-3-(2,1,3-benzoxadiazol-5-yl)-8-{[6-(1H-tetrazol-1-vl)pvridin-3-yl]acetyl}octahydropyrazino[2,1-c][1,4]oxazine] returned an IC50 of 0.18 µM.

The same test, now with this note: read-out: Thallium Flux IC50.
On to `O=C1OCCc2cc([C@@H]3CN4CCN(C(=O)Cc5ccc(-n6cnnn6)nc5)C[C@H]4CO3)ccc21` [Example 1], for which the IC50 amounted to 0.08 µM.
